Peptide text beside a SMILES is read from it.
Assays:
[1] = system: CD4 T cells co-cultured with autologous DCs from PBMCs; type: cell-based, human; conditions: positive = Stimulation Index ≥1.5-fold above baseline, 5 µg/mL peptide
HLA-DRB1*0701 = HLA-DRB1*0701 (Homo sapiens, UniProt P01903+P01911, A100R/A102G/A103Q/D57E/D86V/E43K/F76Y/K127E/L162R/M171V/P40G/Q125H/Q99D/R33Q/R42Y/R54Q/S133A/S66F/T210M/V115G/Y107V/Y59L/Y89S); experiment: In vitro class II HLA binding competition assay; conditions: competition with fluorescent-labeled reference peptide, class II HLA monomers, 24-hours, test peptide 100,000 nM to 100 nM, time-resolved fluorescence; read-out: IC50, DRB1*0701
How it was run: (§1)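 Competition format: labeled reference peptide + titrated test peptide + limiting HLA monomer, 24 h in aqueous buffer. Anti-HLA-DR capture, europium-probe TRF read. % inhibition of reference binding → IC50. Test range 100,000–100 nM final; peptides reconstituted in DMSO.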

HLA-DRB1*0101 = target: T1, HLA-DRB1*0101 (Homo sapiens, UniProt P01903+P01911, A100R/D57E/F55L/F60I/F76Y/I96L/L162R/M171V/P40L/Q125E/R42F/V115G/Y59C); experiment: In vitro class II HLA binding competition assay; conditions: competition with fluorescent-labeled reference peptide, class II HLA monomers, 24-hours, test peptide 100,000 nM to 100 nM, time-resolved fluorescence
T1 construct: purchased
How it was run: as §1

HLA-DRB1*0301 = HLA-DRB1*0301 (Homo sapiens, UniProt P01903+P01911, A100K/A102G/A103R/A169T/F55Y/I96L/K41T/L162R/M171V/P40S/Q125H/Q178H/Q39Y/R42S/S66N/T106N/T262R/W38E/Y61H); experiment: In vitro class II HLA binding competition assay; conditions: competition with fluorescent-labeled reference peptide, class II HLA monomers, 24-hours, test peptide 100,000 nM to 100 nM, time-resolved fluorescence
How it was run: as §1

HLA-DRB1*1301 = HLA-DRB1*1301 (Homo sapiens, UniProt P01903+P01911, A100E/A169T/K41T/L162R/M171V/P40S/Q125H/Q178H/Q39Y/Q99D/R42S/S66N/T262R/W38E/Y61H); experiment: In vitro class II HLA binding competition assay; conditions: competition with fluorescent-labeled reference peptide, class II HLA monomers, 24-hours, test peptide 100,000 nM to 100 nM, time-resolved fluorescence
How it was run: as §1

HLA-DRB1*0401 = target: T2, HLA-DRB1*0401 (Homo sapiens, UniProt P01903+P01911, A100K/A169T/F76Y/I96L/K127E/L162R/M171V/N62H/P40V/Q125Y/R42H/S133A/S149N/S66Y/V115G/V209L/W38E); experiment: In vitro class II HLA binding competition assay; conditions: competition with fluorescent-labeled reference peptide, class II HLA monomers, 24-hours, test peptide 100,000 nM to 100 nM, time-resolved fluorescence; read-out: IC50, DRB1*0401
T2 construct: purchased
How it was run: as §1

HLA-DRB1*1101 = target: T3, HLA-DRB1*1101 (Homo sapiens, UniProt P01903+P01911, A100R/A169T/A87E/I96F/K41T/L162R/M171V/P40S/Q125H/Q178H/Q39Y/Q99D/R42S/S66Y/T262R/V115G/W38E); experiment: In vitro class II HLA binding competition assay; conditions: competition with fluorescent-labeled reference peptide, class II HLA monomers, 24-hours, test peptide 100,000 nM to 100 nM, time-resolved fluorescence
T3 construct: purchased
How it was run: as §1

HLA-DRB1*1501 = target: T4, HLA-DRB1*1501 (Homo sapiens, UniProt P01903+P01911); experiment: In vitro class II HLA binding competition assay; conditions: competition with fluorescent-labeled reference peptide, class II HLA monomers, 24-hours, test peptide 100,000 nM to 100 nM, time-resolved fluorescence; read-out: IC50, DRB1*1501
T4 construct: purchased
How it was run: as §1

SMILES: CC[C@H](C)[C@H](NC(=O)[C@H](CO)NC(=O)[C@H](CO)NC(=O)[C@H](CC(N)=O)NC(=O)[C@@H](NC(=O)[C@@H](NC(=O)[C@H](CC(N)=O)NC(=O)[C@H](Cc1ccccc1)NC(=O)[C@@H](NC(=O)[C@H](CO)NC(=O)[C@H](CO)NC(=O)[C@@H](N)CCCCN)C(C)C)C(C)C)C(C)C)C(=O)NCC(=O)N[C@@H](CC(C)C)C(=O)N[C@H](C(=O)N[C@@H](CCSC)C(=O)N[C@H](C(=O)N[C@@H](CC(C)C)C(=O)N[C@@H](CO)C(N)=O)C(C)C)[C@@H](C)CC [Cluster C4] (H-KSSVFNVVNSSIGLIMVLS-NH2)
- Percentage of donors demonstrating IFN-γ responses, DR1 ([1]; DR1 donors N=5, ICCS after 14-day co-culture): 20%
- Percentage of donors demonstrating IL-2 responses, DR1 ([1]; DR1 donors N=5, ICCS): 0%
- Percentage of donors demonstrating IL-4 responses, DR1 ([1]; DR1 donors N=5, ICCS): 0%
- Percentage of donors demonstrating IL-10 responses, DR1 ([1]; DR1 donors N=5, ICCS): 20%
- Percentage of donors demonstrating TNF-α responses, DR1 ([1]; DR1 donors N=5, ICCS): 0%
- Percentage of donors demonstrating IFN-γ responses, DR3 ([1]; DR3 donors N=6, ICCS after 14-day co-culture): 17%
- Percentage of donors demonstrating IL-2 responses, DR3 ([1]; DR3 donors N=6, ICCS): 0%
- Percentage of donors demonstrating IL-4 responses, DR3 ([1]; DR3 donors N=6, ICCS): 0%
- Percentage of donors demonstrating IL-10 responses, DR3 ([1]; DR3 donors N=6, ICCS): 0%
- Percentage of donors demonstrating TNF-α responses, DR3 ([1]; DR3 donors N=6, ICCS): 0%
- Percentage of donors demonstrating IFN-γ responses, DR4 ([1]; DR4 donors N=10, ICCS after 14-day co-culture): 30%
- Percentage of donors demonstrating IL-2 responses, DR4 ([1]; DR4 donors N=10, ICCS): 0%
- Percentage of donors demonstrating IL-4 responses, DR4 ([1]; DR4 donors N=10, ICCS): 40%
- Percentage of donors demonstrating IL-10 responses, DR4 ([1]; DR4 donors N=10, ICCS): 20%
- Percentage of donors demonstrating TNF-α responses, DR4 ([1]; DR4 donors N=10, ICCS): 10%
- Percentage of donors demonstrating IFN-γ responses, DR7 ([1]; DR7 donors N=4, ICCS after 14-day co-culture): 0%
- Percentage of donors demonstrating IL-2 responses, DR7 ([1]; DR7 donors N=4, ICCS): 0%
- Percentage of donors demonstrating IL-4 responses, DR7 ([1]; DR7 donors N=4, ICCS): 25%
- Percentage of donors demonstrating IL-10 responses, DR7 ([1]; DR7 donors N=4, ICCS): 0%
- Percentage of donors demonstrating TNF-α responses, DR7 ([1]; DR7 donors N=4, ICCS): 0%
- Percentage of donors demonstrating IFN-γ responses, DR8 ([1]; DR8 donors N=4, ICCS after 14-day co-culture): 25%
- Percentage of donors demonstrating IL-2 responses, DR8 ([1]; DR8 donors N=4, ICCS): 25%
- Percentage of donors demonstrating IL-4 responses, DR8 ([1]; DR8 donors N=4, ICCS): 25%
- Percentage of donors demonstrating IL-10 responses, DR8 ([1]; DR8 donors N=4, ICCS): 25%
- Percentage of donors demonstrating TNF-α responses, DR8 ([1]; DR8 donors N=4, ICCS): 25%
- Percentage of donors demonstrating IFN-γ responses, DR9 ([1]; DR9 donors N=4, ICCS after 14-day co-culture): 0%
- Percentage of donors demonstrating IL-2 responses, DR9 ([1]; DR9 donors N=4, ICCS): 25%
- Percentage of donors demonstrating IL-4 responses, DR9 ([1]; DR9 donors N=4, ICCS): 25%
- Percentage of donors demonstrating IL-10 responses, DR9 ([1]; DR9 donors N=4, ICCS): 0%
- Percentage of donors demonstrating TNF-α responses, DR9 ([1]; DR9 donors N=4, ICCS): 25%
- Percentage of donors demonstrating IFN-γ responses, DR11 ([1]; DR11 donors N=4, ICCS after 14-day co-culture): 50%
- Percentage of donors demonstrating IL-2 responses, DR11 ([1]; DR11 donors N=4, ICCS): 25%
- Percentage of donors demonstrating IL-4 responses, DR11 ([1]; DR11 donors N=4, ICCS): 0%
- Percentage of donors demonstrating IL-10 responses, DR11 ([1]; DR11 donors N=4, ICCS): 0%
- Percentage of donors demonstrating TNF-α responses, DR11 ([1]; DR11 donors N=4, ICCS): 25%
- Percentage of donors demonstrating IFN-γ responses, DR13 ([1]; DR13 donors N=7, ICCS after 14-day co-culture): 29%
- Percentage of donors demonstrating IL-2 responses, DR13 ([1]; DR13 donors N=7, ICCS): 43%
- Percentage of donors demonstrating IL-4 responses, DR13 ([1]; DR13 donors N=7, ICCS): 14%
- Percentage of donors demonstrating IL-10 responses, DR13 ([1]; DR13 donors N=7, ICCS): 0%
- Percentage of donors demonstrating TNF-α responses, DR13 ([1]; DR13 donors N=7, ICCS): 43%
- Percentage of donors demonstrating IFN-γ responses, DR15 ([1]; DR15 donors N=7, ICCS after 14-day co-culture): 0%
- Percentage of donors demonstrating IL-2 responses, DR15 ([1]; DR15 donors N=7, ICCS): 0%
- Percentage of donors demonstrating IL-4 responses, DR15 ([1]; DR15 donors N=7, ICCS): 29%
- Percentage of donors demonstrating IL-10 responses, DR15 ([1]; DR15 donors N=7, ICCS): 0%
- Percentage of donors demonstrating TNF-α responses, DR15 ([1]; DR15 donors N=7, ICCS): 14%
- IC50 (HLA-DRB1*0701): 2070 nM
- IC50 (HLA-DRB1*0101): 526 nM
- IC50 (HLA-DRB1*0301): 1100 nM
- IC50 (HLA-DRB1*1301): 1200 nM
- IC50 (HLA-DRB1*0401): 1690 nM
- IC50 (HLA-DRB1*1101): 1040 nM
- IC50 (HLA-DRB1*1501): 12300 nM

Source: publication PMC8217813, “Bridging Computational Vaccinology and Vaccine Development Through Systematic Identification, Characterization, and Downselection of Conserved and Variable Circumsporozoite Protein CD4 T Cell Epitopes From Diverse Plasmodium falciparum Strains” (Frontiers in Immunology, 2021)
